The OPERA property sets (Mansouri et al. 2018)
Values after ≈ are worked out from the molar mass of the structure shown.

Settings: for solubility: 21 °C

SMILES | logP | solubility [µM]
CCOC(=O)COC(=O)c1ccccc1OC(C)=O | 1.67 | –
CC(=O)OCOC(=O)c1ccccc1OC(C)=O | 1.42 | –
CC(=O)Oc1ccccc1C(=O)OCC(=O)NCC(N)=O | -0.43 | –
CC(=O)Oc1ccccc1C(=O)OCS(C)=O (stereo not given) | 0.11 | –
CSCOC(=O)c1ccccc1OC(C)=O | 1.94 | 2290 (≈ 550 µg/mL)
CC(=O)Oc1ccccc1C(=O)OCC(=O)N(C(C)C)C(C)C | 2.03 | –
CC(=O)Nc1ccc(OC(=O)c2ccccc2OC(C)=O)cc1 | 2.15 | 63.8 (≈ 20 µg/mL)
CC(=O)Oc1ccccc1C(=O)OCC(=O)N(C)CC(N)=O | -0.46 | –
CCOC(=O)CN(C)C(=O)COC(=O)c1ccccc1OC(C)=O | 1.67 | –
CC(=O)Oc1ccccc1C(=O)Oc1ccccc1 | 2.88 | 78 (≈ 20 µg/mL)
CC(=O)Oc1ccccc1C(=O)OCC(=O)N(C)C | 0.38 | –
CCNC(=O)COC(=O)c1ccccc1OC(C)=O | 0.9 | –
